Common to all, as to format: functional, cell-based
The test system of one assay is MCF7. Kind of assay: Cytotoxicity in human MCF7 cells assessed as reduction in cell viability incubated for 48 hrs by MTT assay. To be noted: MCF7, 48 h.
In another assay the test system is MDA-MB-231. Kind of assay: Cytotoxicity in human MDA-MB-231 cells assessed as reduction in cell viability incubated for 48 hrs by MTT assay. Conditions: MDA-MB-231, 48 h. For orientation: Tetrazolium dyes change colour on reduction, which living cells bring about.
The test system of a further assay is DU-145. Kind of assay: Cytotoxicity in human DU145 cells assessed as reduction in cell viability incubated for 48 hrs by MTT assay. To be noted: DU-145, 48 h.
A further assay deals with A549. Kind of assay: Cytotoxicity in human A549 cells assessed as reduction in cell viability incubated for 48 hrs by MTT assay. Conditions: A549, 48 h.
The subject of the next assay is B16-F10. Kind of assay: Cytotoxicity in mouse B16/F10 cells assessed as reduction in cell viability incubated for 48 hrs by MTT assay. Conditions: B16-F10, 48 h.

pIC50: −log10 of the molar value.

A word on the pIC50: it is −log10 of the IC50, conventionally taken in molar units. Take `COc1ccc(CN(C(=S)Nc2cc(C(F)(F)F)cc(C(F)(F)F)c2)n2cnnc2)cc1OC`: the pIC50 is 4.81 with MCF7; 4.60 in the assay on MDA-MB-231; 4.58 in the assay with DU-145; 4.79 in the assay with A549; 5.07 in the assay with B16-F10.

For `COc1ccc(OC)c(CN(C(=S)Nc2ccc(C)cc2)n2cnnc2)c1`, the pIC50 in the assay on MCF7 was < 4.30; in the assay on MDA-MB-231, < 4.30; with DU-145 it was 4.68; in the assay with A549, 4.76; with B16-F10 it was 4.68.

`Cc1ccsc1CN(C(=O)Nc1ccc(Cl)c(C(F)(F)F)c1)n1cnnc1`: the negative-log IC50 (pIC50) in the assay with MCF7 is 4.52; in the assay on MDA-MB-231 it was 4.53; in the assay with DU-145 it was 4.62; in the assay with A549, 4.58; in the assay with B16-F10, 4.66.

For the compound `COc1cc(CN(C(=S)Nc2cc(C(F)(F)F)cc(C(F)(F)F)c2)n2cnnc2)cc(OC)c1OC`, the negative logarithm of the IC50 (pIC50) is 4.62 in the assay on MCF7; 4.60 with MDA-MB-231; 4.64 in the assay with DU-145; 4.68 with A549; 5.25 with B16-F10.

As to `O=C(NCc1ccccc1)N(Cc1ccccn1)n1cnnc1`, the pIC50 in the assay on MCF7 was < 4.30; with MDA-MB-231, < 4.30; in the assay on DU-145 it was 4.67; in the assay with A549 it was 4.66; with B16-F10, 4.51.

On to `CCc1ccc(NC(=S)N(Cc2ccc(OC)c(OC)c2)n2cnnc2)cc1`, for which the negative-log IC50 (pIC50) is < 4.30 in the assay with MCF7; < 4.30 in the assay with MDA-MB-231; < 4.30 with DU-145; 4.55 in the assay on A549; 4.64 in the assay on B16-F10.

Take `COc1cc(CN(C(=O)Nc2ccc(C#N)cc2)n2cnnc2)cc(OC)c1OC`: the pIC50 in the assay with MCF7 is < 4.30; in the assay with MDA-MB-231, < 4.30; in the assay on DU-145, 4.69; in the assay on A549 it was 4.68; in the assay on B16-F10 it was 4.68.

Take `COc1ccc(CN(C(=O)Nc2ccc(C#N)cc2)n2cnnc2)cc1OC`: the pIC50 was < 4.30 in the assay with MCF7; < 4.30 with MDA-MB-231; 4.62 in the assay on DU-145; < 4.30 in the assay with A549; < 4.30 in the assay on B16-F10.

Turning to `COc1ccc(CN(C(=S)Nc2ccc(F)c(Cl)c2)n2cnnc2)cc1OC`, the pIC50 in the assay on MCF7 is 4.52; with MDA-MB-231 it was 4.55; in the assay on DU-145 it was 4.63; with A549, 4.68; in the assay on B16-F10, 4.68.

Consider `COc1cc(CN(C(=S)Nc2ccc(C)cc2)n2cnnc2)cc(OC)c1OC`, for which the negative-log IC50 (pIC50) in the assay with MCF7 was < 4.30; with MDA-MB-231, < 4.30; in the assay on DU-145, 4.68; in the assay on A549, 4.64; in the assay on B16-F10, 4.33.

`Cc1ccsc1CN(C(=O)Nc1ccccc1)n1cnnc1`: the negative logarithm of the IC50 (pIC50) in the assay on MCF7 was < 4.30; with MDA-MB-231, < 4.30; in the assay on DU-145, < 4.30; with A549 it was 4.66; with B16-F10, 4.51.

For the compound `COc1ccc(CN(C(=O)Nc2ccc(Cl)cc2)n2cnnc2)cc1OC`, the negative logarithm of the IC50 (pIC50) is < 4.30 in the assay on MCF7; < 4.30 with MDA-MB-231; 4.69 with DU-145; 4.35 in the assay with A549; 4.38 in the assay with B16-F10.

As to `O=c1[nH]cc(F)c(=O)[nH]1` [FLUOROURACIL], the values for the negative-log IC50 (pIC50) with MCF7 and with DU-145 were 4.78 and 4.41, respectively.

As for `O=C(Nc1ccccc1)N(Cc1ccccn1)n1cnnc1`, the pIC50 with MCF7 was < 4.30; in the assay with MDA-MB-231, < 4.30; with DU-145, 4.70; in the assay with A549, 4.60; with B16-F10, 4.63.

With `N#Cc1ccc(CN(C(=O)Nc2ccccc2)n2cnnc2)cc1`, the negative logarithm of the IC50 (pIC50) with MCF7 is < 4.30; in the assay on MDA-MB-231, < 4.30; in the assay on DU-145, < 4.30; in the assay with A549 it was < 4.30; with B16-F10 it was 4.46.

Take `Cc1ccc(NC(=O)N(Cc2ccccn2)n2cnnc2)cc1`: the pIC50 in the assay with MCF7 is 4.41; in the assay on MDA-MB-231 it was 4.40; in the assay on DU-145, 4.67; in the assay with A549 it was 4.66; in the assay with B16-F10, 4.45.

As for `COc1ccc(OC)c(CN(C(=S)NC2CCCCC2)n2cnnc2)c1`, the negative logarithm of the IC50 (pIC50) was < 4.30 in the assay with MCF7; < 4.30 with MDA-MB-231; 4.53 with DU-145; 4.67 in the assay with A549; 4.40 in the assay on B16-F10.

On to `Cc1ccsc1CN(C(=O)Nc1cccc(Cl)c1)n1cnnc1`, for which the pIC50 was 4.51 with MCF7; 4.40 with MDA-MB-231; 4.69 in the assay on DU-145; 4.67 in the assay on A549; < 4.30 in the assay on B16-F10.

Regarding `Cc1ccsc1CN(C(=O)Nc1cccc(C#N)c1)n1cnnc1`, the pIC50 is < 4.30 in the assay with MCF7; < 4.30 in the assay on MDA-MB-231; 4.51 with DU-145; 4.59 in the assay on A549; 4.54 with B16-F10.

Regarding `COc1ccc(CN(C(=S)Nc2ccc(C)cc2)n2cnnc2)cc1OC`, the pIC50 in the assay with MCF7 is < 4.30; in the assay with MDA-MB-231, < 4.30; in the assay with DU-145 it was 4.58; in the assay with A549 it was 4.65; in the assay with B16-F10 it was 4.52.

On to `CCc1ccc(NC(=S)N(Cc2cc(OC)c(OC)c(OC)c2)n2cnnc2)cc1`, for which the pIC50 in the assay with MCF7 was 4.61; with MDA-MB-231, 4.61; in the assay with DU-145 it was 4.67; in the assay with A549, 4.76; with B16-F10, 4.61.

Consider `CC1CCC(NC(=O)N(Cc2ccccn2)n2cnnc2)CC1` (configuration not stated), for which the pIC50 in the assay with MCF7 was 4.47; with MDA-MB-231, 4.48; in the assay with DU-145, 4.70; in the assay on A549, 4.36; in the assay with B16-F10, 4.40.

In the case of `O=C(NC1CCCCC1)N(Cc1ccccn1)n1cnnc1`, the negative-log IC50 (pIC50) in the assay with MCF7 was 4.33; in the assay with MDA-MB-231 it was 4.36; in the assay with DU-145, < 4.30; in the assay on A549 it was < 4.30; with B16-F10, 4.45.

Turning to `COc1ccc(CN(C(=O)Nc2ccc(Cl)c(C(F)(F)F)c2)n2cnnc2)cc1OC`, the pIC50 is < 4.30 with MCF7; < 4.30 in the assay on MDA-MB-231; < 4.30 in the assay on DU-145; 4.53 in the assay with A549; < 4.30 with B16-F10.

Regarding `CCCCCCCCCNC(=S)N(Cc1cc(OC)ccc1OC)n1cnnc1`, the pIC50 is < 4.30 in the assay on MCF7; < 4.30 in the assay with MDA-MB-231; < 4.30 in the assay on DU-145; < 4.30 with A549; 4.53 in the assay on B16-F10.

For the origin of these results see ChEMBL document CHEMBL4118131, “Synthesis of 1,2,4-triazole-linked urea/thiourea conjugates as cytotoxic and apoptosis inducing agents” (Bioorg Med Chem Lett, 2018).
